Laboratory results: US5516790A, “Synthesis and application of alkyl-substituted dibenzofurans as antitumorigenic agents” (Texas A&M University System Technology Licensing Office, priority 1994, dated 1996)

Assays:
[1] = in vivo; cited from earlier work
[2] = tested on: uterus; details: weanling female C57BL/6 mice; cited from earlier work
[3] = tested on: mammary and uterine tumors; details: long term feeding studies; cited from earlier work
[4] = tested on: MCF-7 human breast cancer cells; experiment: Growth of MCF-7 human breast cancer cells; type: cell-based; details: MCDF
[5] = tested on: EGF receptor; details: cited from earlier work
[6] = tested on: estrogen receptor; experiment: Uterine and hepatic estrogen receptor levels (literature); type: in vivo, rat; details: in comparison to control test animals, rats and mice
[7] = tested on: 52-kDa protein; details: Biegel and Safe, 1990; cited from earlier work
[8] = tested on: uterus; experiment: Uterine wet weights in mice (summary); type: in vivo; details: in comparison to control
[9] = tested on: Ah receptor; experiment: Binding affinity for the Ah receptor
[10] = tested on: AHH and EROD induction; details: previous studies; cited from earlier work

| Compound | hepatocarcinogenicity [1] | uterine weights [2] | spontaneous development of mammary and uterine tumors [3] | 17β-estradiol-induced growth of MCF-7 cells [4] | 17β-estradiol-induced increased EGF receptor binding and mRNA levels [5] | nuclear and cytosolic hepatic and uterine estrogen receptors [6] | 17β-estradiol-induced secretion of the 52-kDa protein [7] | uterine wet weights [8] | Ah receptor binding activity [9] | antagonist to the activities of TCDD [10] |
| --- | --- | --- | --- | --- | --- | --- | --- | --- | --- | --- |
| Clc1cc2c(cc1Cl)Oc1cc(Cl)c(Cl)cc1O2 [TCDD, 2,3,7,8-tetrachloridibenzo-p-dioxin] | so hepatocarcinogenic | decreased | significantly decreased | – | – | – | – | – | – | – |
| Cc1cc(Cl)cc2c1oc1cc(Cl)cc(Cl)c12 [MCDF, 6-methyl 1,3,8-trichlorodibenzofuran] | – | – | – | inhibits | inhibits | decreases | inhibits | decreases | relatively high | antagonist |
